Structures can show the parent of a compound that is named as a salt.
Experiments:
[1] = system: Adrenergic α1A; assay: competitive radioligand binding, Adrenergic α1A; settings: compound concentration of 1 μM
Procedure: (§1) Profiles of pharmacological activity of thieno-pyrrolo[3,2-c]pyridines of the general formula 1. Biological activity test of compounds of the general formula 1 was carried out in the setting of competitive radioligand binding [I. Okun, S. Tkachenko, A. Khvat, et al., Current Alzheimer Research, 7(2), 97-112 (2010)], using a wide range of therapeutic targets including G-protein coupled receptors (GPCR), ion channels and neuromediator transporters. The tested activity was determined by quantitative measurement of radio-labelled ligand displacement by tested compounds of the general formula 1 at their concentration of 1 μM.

[2] = system: Adrenergic α1B; assay: competitive radioligand binding, Adrenergic α1B; settings: compound concentration of 1 μM
Procedure: as §1

[3] = target: T1, Adrenergic α1D (Homo sapiens, UniProt P25100); assay: competitive radioligand binding, Adrenergic α1D; settings: compound concentration of 1 μM
T1 sequence (P25100 1-572): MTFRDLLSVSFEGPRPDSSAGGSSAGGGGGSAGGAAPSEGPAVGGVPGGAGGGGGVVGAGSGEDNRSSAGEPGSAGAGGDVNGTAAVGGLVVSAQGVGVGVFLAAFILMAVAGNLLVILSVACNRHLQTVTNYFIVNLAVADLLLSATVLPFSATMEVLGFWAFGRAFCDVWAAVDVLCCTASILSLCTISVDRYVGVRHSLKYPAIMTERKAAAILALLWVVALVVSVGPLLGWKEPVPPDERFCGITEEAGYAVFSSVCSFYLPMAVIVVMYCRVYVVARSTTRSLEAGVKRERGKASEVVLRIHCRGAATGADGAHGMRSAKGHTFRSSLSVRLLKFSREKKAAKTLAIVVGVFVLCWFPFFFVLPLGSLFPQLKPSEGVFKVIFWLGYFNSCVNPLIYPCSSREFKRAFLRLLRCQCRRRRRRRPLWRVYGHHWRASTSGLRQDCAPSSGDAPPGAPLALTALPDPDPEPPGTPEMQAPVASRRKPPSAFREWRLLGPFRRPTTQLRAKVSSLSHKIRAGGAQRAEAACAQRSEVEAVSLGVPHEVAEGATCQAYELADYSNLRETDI
Procedure: as §1

[4] = target: T2, Adrenergic α2A (Homo sapiens, UniProt P08913); assay: competitive radioligand binding, Adrenergic α2A; settings: compound concentration of 1 μM
T2 sequence (P08913 1-465): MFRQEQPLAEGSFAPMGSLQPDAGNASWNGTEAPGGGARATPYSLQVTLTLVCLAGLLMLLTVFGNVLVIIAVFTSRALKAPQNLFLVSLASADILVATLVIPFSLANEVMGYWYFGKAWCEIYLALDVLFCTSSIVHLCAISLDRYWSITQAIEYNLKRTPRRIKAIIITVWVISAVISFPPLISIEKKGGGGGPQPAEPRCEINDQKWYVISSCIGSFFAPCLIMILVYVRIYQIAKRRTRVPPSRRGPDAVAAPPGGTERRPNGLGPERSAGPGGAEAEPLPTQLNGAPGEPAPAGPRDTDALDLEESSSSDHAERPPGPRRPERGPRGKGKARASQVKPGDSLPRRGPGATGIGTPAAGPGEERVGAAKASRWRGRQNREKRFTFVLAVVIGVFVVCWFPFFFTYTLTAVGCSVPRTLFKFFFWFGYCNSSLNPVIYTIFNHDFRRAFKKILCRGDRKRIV
Procedure: as §1

[5] = target: Dopaminergic D1 (Homo sapiens, UniProt P21728); assay: competitive radioligand binding, Dopaminergic D1; settings: compound concentration of 1 μM
Sequence of Dopaminergic D1 (P21728 whole entry): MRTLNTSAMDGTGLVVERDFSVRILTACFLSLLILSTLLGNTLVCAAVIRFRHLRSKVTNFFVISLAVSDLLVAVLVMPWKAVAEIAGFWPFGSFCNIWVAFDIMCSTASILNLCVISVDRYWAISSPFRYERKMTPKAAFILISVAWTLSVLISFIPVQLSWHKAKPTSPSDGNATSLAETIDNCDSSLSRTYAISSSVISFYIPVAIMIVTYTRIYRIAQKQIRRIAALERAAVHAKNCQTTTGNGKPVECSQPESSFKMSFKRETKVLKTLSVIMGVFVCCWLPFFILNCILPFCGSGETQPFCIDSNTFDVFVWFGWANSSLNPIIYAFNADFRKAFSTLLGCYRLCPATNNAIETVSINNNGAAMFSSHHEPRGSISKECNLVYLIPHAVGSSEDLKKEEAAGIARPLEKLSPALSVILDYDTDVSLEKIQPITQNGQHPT
Procedure: as §1

[6] = target: Dopaminergic D2L (Homo sapiens, UniProt P14416); assay: competitive radioligand binding, Dopaminergic D2L; settings: compound concentration of 1 μM
Sequence of Dopaminergic D2L (P14416 whole entry): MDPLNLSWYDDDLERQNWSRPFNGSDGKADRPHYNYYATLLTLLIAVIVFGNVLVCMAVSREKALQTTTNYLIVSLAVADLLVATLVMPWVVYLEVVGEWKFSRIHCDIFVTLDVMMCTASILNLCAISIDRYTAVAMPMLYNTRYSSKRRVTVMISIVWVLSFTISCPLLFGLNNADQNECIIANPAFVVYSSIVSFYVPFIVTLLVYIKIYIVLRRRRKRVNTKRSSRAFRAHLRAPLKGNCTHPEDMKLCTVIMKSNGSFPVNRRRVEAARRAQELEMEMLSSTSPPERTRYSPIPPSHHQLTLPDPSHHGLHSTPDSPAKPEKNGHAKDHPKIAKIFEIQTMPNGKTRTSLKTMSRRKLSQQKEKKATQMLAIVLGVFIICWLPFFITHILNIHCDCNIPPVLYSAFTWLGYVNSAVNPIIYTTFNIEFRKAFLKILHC
Procedure: as §1

[7] = target: Dopaminergic D2S (Homo sapiens, UniProt P14416); assay: competitive radioligand binding, Dopaminergic D2S; settings: compound concentration of 1 μM
Sequence of Dopaminergic D2S (P14416 1-414 isoform P14416-2): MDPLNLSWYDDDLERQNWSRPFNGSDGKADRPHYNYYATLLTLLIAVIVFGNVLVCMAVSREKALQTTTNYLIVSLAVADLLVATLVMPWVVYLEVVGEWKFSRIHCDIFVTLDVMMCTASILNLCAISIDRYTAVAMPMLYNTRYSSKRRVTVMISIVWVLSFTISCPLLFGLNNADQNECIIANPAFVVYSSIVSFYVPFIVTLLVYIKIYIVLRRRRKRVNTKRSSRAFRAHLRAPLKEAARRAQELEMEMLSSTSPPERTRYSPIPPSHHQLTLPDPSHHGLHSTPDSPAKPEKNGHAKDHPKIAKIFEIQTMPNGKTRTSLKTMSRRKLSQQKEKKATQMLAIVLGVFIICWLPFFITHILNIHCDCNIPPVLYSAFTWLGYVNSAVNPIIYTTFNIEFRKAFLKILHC
Procedure: as §1

[8] = target: Dopaminergic D3 (Homo sapiens, UniProt P35462); assay: competitive radioligand binding, Dopaminergic D3; settings: compound concentration of 1 μM
Sequence of Dopaminergic D3 (P35462 whole entry): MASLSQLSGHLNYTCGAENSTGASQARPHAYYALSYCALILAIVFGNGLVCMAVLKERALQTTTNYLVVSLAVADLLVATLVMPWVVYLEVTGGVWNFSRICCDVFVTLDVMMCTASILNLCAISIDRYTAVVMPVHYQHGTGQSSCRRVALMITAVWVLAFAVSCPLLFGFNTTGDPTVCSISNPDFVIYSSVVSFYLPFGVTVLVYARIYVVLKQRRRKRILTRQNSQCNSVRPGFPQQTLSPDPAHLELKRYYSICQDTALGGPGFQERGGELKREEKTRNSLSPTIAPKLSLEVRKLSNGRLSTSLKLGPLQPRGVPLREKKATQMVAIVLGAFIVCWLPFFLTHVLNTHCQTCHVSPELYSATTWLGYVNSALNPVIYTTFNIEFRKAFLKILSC
Procedure: as §1

[9] = target: T3, Dopaminergic D4.2 (Homo sapiens, UniProt P21917, DEL265-296); assay: competitive radioligand binding, Dopaminergic D4.2; settings: compound concentration of 1 μM
T3 sequence (P21917 with tags, fused parts or gaps DEL265-296): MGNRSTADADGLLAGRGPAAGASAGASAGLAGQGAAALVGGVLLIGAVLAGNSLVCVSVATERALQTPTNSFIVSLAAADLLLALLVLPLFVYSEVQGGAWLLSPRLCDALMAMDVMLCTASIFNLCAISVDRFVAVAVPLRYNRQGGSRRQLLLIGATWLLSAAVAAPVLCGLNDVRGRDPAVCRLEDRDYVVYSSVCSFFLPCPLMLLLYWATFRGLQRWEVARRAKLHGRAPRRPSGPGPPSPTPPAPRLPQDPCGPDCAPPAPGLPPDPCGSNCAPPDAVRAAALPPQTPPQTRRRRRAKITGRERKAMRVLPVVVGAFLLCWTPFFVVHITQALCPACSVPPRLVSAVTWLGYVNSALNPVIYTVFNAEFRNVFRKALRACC
Procedure: as §1

[10] = target: Histaminergic H1 (Homo sapiens, UniProt P35367); assay: competitive radioligand binding, Histaminergic H1; settings: compound concentration of 1 μM
Sequence of Histaminergic H1 (P35367 whole entry): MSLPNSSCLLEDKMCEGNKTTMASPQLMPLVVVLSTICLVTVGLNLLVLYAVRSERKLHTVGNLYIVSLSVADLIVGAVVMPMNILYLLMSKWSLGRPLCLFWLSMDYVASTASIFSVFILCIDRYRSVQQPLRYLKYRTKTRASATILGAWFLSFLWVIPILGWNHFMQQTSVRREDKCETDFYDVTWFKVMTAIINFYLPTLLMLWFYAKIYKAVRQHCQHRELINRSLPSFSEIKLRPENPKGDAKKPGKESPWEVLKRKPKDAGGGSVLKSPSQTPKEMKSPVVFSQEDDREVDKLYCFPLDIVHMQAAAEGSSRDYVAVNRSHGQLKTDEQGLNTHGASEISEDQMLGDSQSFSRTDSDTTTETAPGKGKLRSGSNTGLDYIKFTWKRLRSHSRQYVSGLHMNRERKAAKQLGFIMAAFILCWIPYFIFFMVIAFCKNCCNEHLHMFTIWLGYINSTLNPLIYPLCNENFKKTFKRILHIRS
Procedure: as §1

[11] = target: Histaminergic H2 (Homo sapiens, UniProt P25021); assay: competitive radioligand binding, Histaminergic H2; settings: compound concentration of 1 μM
Sequence of Histaminergic H2 (P25021 whole entry): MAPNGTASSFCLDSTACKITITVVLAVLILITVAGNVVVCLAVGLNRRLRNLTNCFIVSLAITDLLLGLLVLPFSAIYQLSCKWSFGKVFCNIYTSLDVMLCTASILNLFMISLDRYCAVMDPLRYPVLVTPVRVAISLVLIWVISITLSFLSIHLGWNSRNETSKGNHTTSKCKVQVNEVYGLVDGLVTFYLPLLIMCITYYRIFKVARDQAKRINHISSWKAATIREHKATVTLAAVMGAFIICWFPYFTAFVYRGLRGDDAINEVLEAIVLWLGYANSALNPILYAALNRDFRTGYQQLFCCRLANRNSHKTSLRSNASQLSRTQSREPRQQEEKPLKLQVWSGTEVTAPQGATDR
Procedure: as §1

[12] = target: Histaminergic H3 (Homo sapiens, UniProt Q9Y5N1); assay: competitive radioligand binding, Histaminergic H3; settings: compound concentration of 1 μM; in % (unit assumed)
Sequence of Histaminergic H3 (Q9Y5N1 whole entry): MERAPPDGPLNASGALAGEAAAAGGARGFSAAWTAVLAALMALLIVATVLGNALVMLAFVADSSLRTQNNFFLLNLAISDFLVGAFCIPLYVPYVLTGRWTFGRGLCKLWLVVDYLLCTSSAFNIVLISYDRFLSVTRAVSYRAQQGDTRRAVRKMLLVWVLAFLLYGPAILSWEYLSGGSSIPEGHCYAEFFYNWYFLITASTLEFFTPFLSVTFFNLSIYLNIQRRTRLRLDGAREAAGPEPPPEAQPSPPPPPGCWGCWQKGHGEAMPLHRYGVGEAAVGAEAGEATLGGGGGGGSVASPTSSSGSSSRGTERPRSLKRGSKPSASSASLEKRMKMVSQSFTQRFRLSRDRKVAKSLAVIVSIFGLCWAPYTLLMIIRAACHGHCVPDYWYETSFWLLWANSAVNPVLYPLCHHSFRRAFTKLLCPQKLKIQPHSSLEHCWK
Procedure: as §1

[13] = target: T4, Serotoninergic 5-HT1A (Homo sapiens, UniProt P08908); assay: competitive radioligand binding, Serotoninergic 5-HT1A; settings: compound concentration of 1 μM
T4 sequence (P08908 1-422): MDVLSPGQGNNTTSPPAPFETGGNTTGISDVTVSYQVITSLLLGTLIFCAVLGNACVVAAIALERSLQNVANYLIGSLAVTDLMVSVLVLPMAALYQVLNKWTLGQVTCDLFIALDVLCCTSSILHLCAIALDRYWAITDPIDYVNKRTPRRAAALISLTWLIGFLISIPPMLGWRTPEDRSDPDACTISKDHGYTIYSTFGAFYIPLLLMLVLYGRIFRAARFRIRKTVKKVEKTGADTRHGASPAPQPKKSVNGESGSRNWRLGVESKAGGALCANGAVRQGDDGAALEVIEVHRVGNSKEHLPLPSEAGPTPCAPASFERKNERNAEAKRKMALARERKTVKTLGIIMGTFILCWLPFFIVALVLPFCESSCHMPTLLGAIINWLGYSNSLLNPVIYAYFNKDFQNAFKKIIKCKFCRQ
Procedure: as §1

[14] = system: Serotoninergic 5-HT1B; assay: competitive radioligand binding, Serotoninergic 5-HT1B; settings: compound concentration of 1 μM
Procedure: as §1

[15] = target: Serotoninergic 5-HT2A (Homo sapiens, UniProt P28223); assay: competitive radioligand binding, Serotoninergic 5-HT2A; settings: compound concentration of 1 μM
Sequence of Serotoninergic 5-HT2A (P28223 whole entry): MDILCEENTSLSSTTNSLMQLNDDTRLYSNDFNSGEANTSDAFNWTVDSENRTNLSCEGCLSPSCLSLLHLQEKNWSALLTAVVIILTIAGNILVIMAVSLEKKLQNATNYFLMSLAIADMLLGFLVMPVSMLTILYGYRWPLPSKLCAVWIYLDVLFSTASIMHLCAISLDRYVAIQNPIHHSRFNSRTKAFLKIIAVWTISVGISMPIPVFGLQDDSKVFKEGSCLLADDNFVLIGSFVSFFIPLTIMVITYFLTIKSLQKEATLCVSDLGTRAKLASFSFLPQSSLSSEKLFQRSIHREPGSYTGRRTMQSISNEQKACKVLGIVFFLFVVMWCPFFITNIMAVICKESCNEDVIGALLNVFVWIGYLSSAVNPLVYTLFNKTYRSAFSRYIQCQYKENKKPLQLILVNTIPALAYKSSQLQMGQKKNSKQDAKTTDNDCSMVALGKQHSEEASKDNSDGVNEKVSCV
Procedure: as §1

[16] = target: Serotoninergic 5-HT2B (Homo sapiens, UniProt P41595); assay: competitive radioligand binding, Serotoninergic 5-HT2B; settings: compound concentration of 1 μM
Sequence of Serotoninergic 5-HT2B (P41595 whole entry): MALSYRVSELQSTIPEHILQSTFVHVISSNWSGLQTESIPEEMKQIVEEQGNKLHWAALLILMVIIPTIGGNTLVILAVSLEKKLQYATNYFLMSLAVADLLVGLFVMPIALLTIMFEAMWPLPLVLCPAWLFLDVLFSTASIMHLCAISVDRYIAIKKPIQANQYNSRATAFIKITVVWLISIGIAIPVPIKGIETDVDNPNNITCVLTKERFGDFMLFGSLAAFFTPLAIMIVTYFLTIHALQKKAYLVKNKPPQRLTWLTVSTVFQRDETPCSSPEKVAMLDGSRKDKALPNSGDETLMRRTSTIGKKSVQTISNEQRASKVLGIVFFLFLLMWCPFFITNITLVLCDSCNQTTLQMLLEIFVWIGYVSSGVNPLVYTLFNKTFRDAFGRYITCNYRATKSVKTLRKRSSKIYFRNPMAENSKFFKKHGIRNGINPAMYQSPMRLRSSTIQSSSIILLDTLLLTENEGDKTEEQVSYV
Procedure: as §1

[17] = target: T5, Serotoninergic 5-HT2C (Homo sapiens, UniProt P28335); assay: competitive radioligand binding, Serotoninergic 5-HT2C; settings: compound concentration of 1 μM
T5 sequence (P28335 33-458): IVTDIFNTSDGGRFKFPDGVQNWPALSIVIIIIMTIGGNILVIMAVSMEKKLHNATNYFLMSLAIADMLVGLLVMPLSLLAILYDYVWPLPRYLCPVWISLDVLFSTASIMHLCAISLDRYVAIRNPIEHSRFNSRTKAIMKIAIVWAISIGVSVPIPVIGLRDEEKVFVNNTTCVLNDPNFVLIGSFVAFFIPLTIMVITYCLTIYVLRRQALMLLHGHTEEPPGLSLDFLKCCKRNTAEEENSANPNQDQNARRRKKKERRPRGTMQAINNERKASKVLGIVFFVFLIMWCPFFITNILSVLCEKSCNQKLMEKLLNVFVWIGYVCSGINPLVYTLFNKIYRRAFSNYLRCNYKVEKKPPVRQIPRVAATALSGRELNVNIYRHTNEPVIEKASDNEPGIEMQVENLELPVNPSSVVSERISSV
Procedure: as §1

[18] = target: Serotoninergic 5-HT6 (Homo sapiens, UniProt P50406); assay: competitive radioligand binding, Serotoninergic 5-HT6; settings: compound concentration of 1 μM
Sequence of Serotoninergic 5-HT6 (P50406 whole entry): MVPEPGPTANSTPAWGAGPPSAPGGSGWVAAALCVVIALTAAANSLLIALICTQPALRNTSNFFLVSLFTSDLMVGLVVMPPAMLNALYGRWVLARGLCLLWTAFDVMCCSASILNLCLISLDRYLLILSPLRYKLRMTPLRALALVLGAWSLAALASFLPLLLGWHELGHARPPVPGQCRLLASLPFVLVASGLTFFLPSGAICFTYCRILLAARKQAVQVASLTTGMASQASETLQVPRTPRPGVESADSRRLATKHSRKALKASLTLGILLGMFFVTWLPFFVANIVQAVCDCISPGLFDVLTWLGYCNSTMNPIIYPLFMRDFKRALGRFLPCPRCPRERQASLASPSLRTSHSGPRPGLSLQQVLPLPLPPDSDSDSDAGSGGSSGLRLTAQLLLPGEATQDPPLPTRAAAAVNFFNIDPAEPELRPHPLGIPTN
Procedure: as §1

[19] = target: Serotoninergic 5-HT7 (Homo sapiens, UniProt P34969); assay: competitive radioligand binding, Serotoninergic 5-HT7; settings: compound concentration of 1 μM
Sequence of Serotoninergic 5-HT7 (P34969 whole entry): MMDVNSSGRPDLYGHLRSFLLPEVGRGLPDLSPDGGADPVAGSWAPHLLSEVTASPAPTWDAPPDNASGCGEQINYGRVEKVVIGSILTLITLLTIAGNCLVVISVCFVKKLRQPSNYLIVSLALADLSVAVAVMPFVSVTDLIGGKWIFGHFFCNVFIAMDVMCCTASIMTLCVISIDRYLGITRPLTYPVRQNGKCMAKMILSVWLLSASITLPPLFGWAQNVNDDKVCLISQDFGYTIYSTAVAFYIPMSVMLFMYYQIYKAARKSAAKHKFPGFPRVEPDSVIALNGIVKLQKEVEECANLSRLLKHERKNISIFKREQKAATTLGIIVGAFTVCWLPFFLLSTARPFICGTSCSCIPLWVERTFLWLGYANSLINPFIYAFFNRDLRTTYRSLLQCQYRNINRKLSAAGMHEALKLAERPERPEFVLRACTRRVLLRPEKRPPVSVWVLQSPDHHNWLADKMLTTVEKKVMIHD
Procedure: as §1

[20] = system: Therapeutic targets (Adrenergic, Dopaminergic, Histaminergic, Serotoninergic); assay: Profiles of pharmacological activity in competitive radioligand binding (whole panel); settings: 1 μM, grades not defined
Procedure: as §1

[21] = system: Mice of SHK line; assay: Prepulse inhibition of startle response in mice (Apomorphine); settings: 1 mg/kg, intraperitoneally 60 minutes before the test

SMILES | radio-labelled ligand displacement, Adrenergic α1A [1] [%] | radio-labelled ligand displacement, Adrenergic α1B [2] [%] | radio-labelled ligand displacement, Adrenergic α1D [3] [%] | radio-labelled ligand displacement, Adrenergic α2A [4] [%] | radio-labelled ligand displacement, Dopaminergic D1 [5] [%] | radio-labelled ligand displacement, Dopaminergic D2L [6] [%] | radio-labelled ligand displacement, Dopaminergic D2S [7] [%] | radio-labelled ligand displacement, Dopaminergic D3 [8] [%] | radio-labelled ligand displacement, Dopaminergic D4.2 [9] [%] | radio-labelled ligand displacement, Histaminergic H1 [10] [%] | radio-labelled ligand displacement, Histaminergic H2 [11] [%] | radio-labelled ligand displacement, Histaminergic H3 [12] | radio-labelled ligand displacement, Serotoninergic 5-HT1A [13] [%] | radio-labelled ligand displacement, Serotoninergic 5-HT1B [14] [%] | radio-labelled ligand displacement, Serotoninergic 5-HT2A [15] [%] | radio-labelled ligand displacement, Serotoninergic 5-HT2B [16] [%] | radio-labelled ligand displacement, Serotoninergic 5-HT2C [17] [%] | radio-labelled ligand displacement, Serotoninergic 5-HT6 [18] [%] | radio-labelled ligand displacement, Serotoninergic 5-HT7 [19] [%] | grade of the activity profile (poor / satisfactory / good) [20] | also measured
Cc1ccc(CCCn2c3c(c4c(Cl)csc42)CN(C)CC3)cc1 [3.12(5)•HCl, 5-methyl-8-[(p-tolyl)propyl]-3-chloro-4,5,6,7-tetrahydro-5H-thieno[3′,2′:4,5]pyrrolo[3,2-c]pyridine] | 79 | 89 | 86 | 91 | 47 | 35 | 29 | 23 | 33 | 89 | 57 | −3 | 18 | 30 | 97 | 63 | 94 | 99 | 96 | good | –
CN1CCc2c(c3cc(Cl)sc3n2CCCc2cccc(F)c2)C1 [3.12(6)•HCl, 5-methyl-8-[(3-fluorophenyl)propyl]-2-chloro-4,5,6,7-tetrahydro-5H-thieno[3′,2′:4,5]pyrrolo[3,2-c]pyridine] | 84 | 96 | 83 | 91 | 63 | 81 | 77 | 69 | 68 | 97 | 91 | −1 | 50 | 43 | 97 | 91 | 98 | 84 | 95 | good | –
O=C(CCCN1CCC(O)(c2ccc(Cl)cc2)CC1)c1ccc(F)cc1 [Haloperidol, reference compound] | – | – | – | – | – | – | – | – | – | – | – | – | – | – | – | – | – | – | – | – | Antipsychotic activity: disturbance of prepulse inhibition of startle caused by Apomorphine [21]: prevented disturbance of prepulse inhibition of startle caused by Apomorphine

Source: patent US20130267551A1, “SUBSTITUTED HYDROGENATED THIENO-PYRROLO[3,2-C]PYRIDINE, LIGANDS, A PHARMACEUTICAL COMPOSITION AND A METHOD FOR USING THE ABOVE” (ALLA CHEM, LLC, priority 2010, published 2013)
